Source: US11999727B2 (Tango Therapeutics, Inc., priority 2020, dated 2024)

Tests used:
PRMT5 [1] = target: T1, PRMT5 (Homo sapiens, UniProt O14744); test: PRMT5 biochemical IC50 assay with SAM as cofactor; details: PRMT5, SAM as cofactor; read-out: SAM IC50
T1 construct: purchased Viva (custom protein)

PRMT5 [2] = target: T1, PRMT5; test: PRMT5 biochemical IC50 assay with no cofactor; details: PRMT5, no cofactor; read-out: No Cofactor/ rel IC50
Description: Table 1 indicates IC50 values (μM) against PRMT5 for exemplary compounds in the presence of SAM as cofactor, with no cofactor, and with MTA as cofactor, respectively (columns 4-6). […] Ki values can be calculated from the IC50 values as described in the Examples section. As detailed in the Examples section, for the assay performed in the presence of SAM, IC50=Ki×1.5 (Ki=IC50/1.5).

PRMT5 [3] = target: T1, PRMT5; test: PRMT5 biochemical IC50 assay with MTA as cofactor; details: PRMT5, MTA as cofactor; read-out: MTA IC50
[4] = tested on: HAP1 MTAP-intact cell line; test: SDMA in-cell western assay, HAP1 MTAP-intact; type: cell-based; details: Homo sapiens, HAP1, SDMA in-cell western, HAP1 MTAP-intact; read-out: MTAP HAP1 intact IC50
How it was run: (§1)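 Readout: in-cell western detection of SDMA. Cells: HAP1 expressing endogenous MTAP and an MTAP-null HAP1 counterpart. Output: IC50.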

[5] = tested on: HAP1 MTAP-deleted cell line; test: SDMA in-cell western assay, HAP1 MTAP-deleted; type: cell-based; details: for IC50: Homo sapiens, HAP1, SDMA in-cell western, HAP1 MTAP-deleted, read-out: HAP 1 MTAP deleted IC50; for MTAP intact/deleted ratio: IC50 ratio HAP1 MTAP-intact / HAP1 MTAP-deleted, SDMA in-cell western
How it was run: as §1

[6] = tested on: HAP1 MTAP-deleted cell line; test: Viability assay, MTAP-deleted cell line; type: cell-based; details: MTAP-deleted cell line, read-out: HAP1 MTAP deleted viability
Description: Table 1 additionally indicates IC50 values in a viability assay for the MTAP-deleted cell line (column 10), indicating the effect of treatment with compound on cell survival.

[7] = Homo sapiens, HAP1, viability assay

T1 sequence (O14744 whole entry): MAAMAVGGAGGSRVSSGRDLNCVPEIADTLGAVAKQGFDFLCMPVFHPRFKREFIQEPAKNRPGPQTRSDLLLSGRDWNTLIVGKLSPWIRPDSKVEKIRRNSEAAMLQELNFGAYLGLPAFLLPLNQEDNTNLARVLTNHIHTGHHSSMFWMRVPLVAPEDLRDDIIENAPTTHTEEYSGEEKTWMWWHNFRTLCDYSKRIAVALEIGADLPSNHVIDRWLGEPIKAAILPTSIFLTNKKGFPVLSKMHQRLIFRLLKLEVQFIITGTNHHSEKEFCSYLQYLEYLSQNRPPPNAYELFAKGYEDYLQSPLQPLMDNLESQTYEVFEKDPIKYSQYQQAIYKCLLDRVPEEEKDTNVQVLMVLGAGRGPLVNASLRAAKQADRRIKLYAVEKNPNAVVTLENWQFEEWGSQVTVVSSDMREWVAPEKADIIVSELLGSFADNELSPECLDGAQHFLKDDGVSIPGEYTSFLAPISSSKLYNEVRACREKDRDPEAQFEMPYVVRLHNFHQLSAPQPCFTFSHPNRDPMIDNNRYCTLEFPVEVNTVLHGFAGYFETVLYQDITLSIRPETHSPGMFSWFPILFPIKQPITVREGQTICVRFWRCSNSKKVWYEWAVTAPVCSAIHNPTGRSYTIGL
T1 sequence (Q9BQA1 whole entry partner): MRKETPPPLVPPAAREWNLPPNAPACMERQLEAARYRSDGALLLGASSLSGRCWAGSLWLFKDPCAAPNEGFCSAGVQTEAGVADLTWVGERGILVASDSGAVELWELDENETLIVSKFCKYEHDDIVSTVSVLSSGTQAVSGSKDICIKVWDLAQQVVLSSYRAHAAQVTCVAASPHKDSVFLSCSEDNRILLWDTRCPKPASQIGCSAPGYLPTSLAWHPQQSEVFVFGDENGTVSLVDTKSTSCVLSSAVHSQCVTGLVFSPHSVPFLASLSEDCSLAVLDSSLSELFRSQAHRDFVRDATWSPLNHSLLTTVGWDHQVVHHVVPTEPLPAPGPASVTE

Work on `Cc1cncc(NC(=O)C(=O)N2C[C@H](C)CC[C@H]2c2cccc(C)c2)c1` (single isomer, unassigned) [Compound 10] yielded an IC50 (PRMT5 [1]) of 50 to 500 nM, an IC50 (PRMT5 [2]) of 50 to 500 nM and an IC50 (PRMT5 [3]) of 50 to 500 nM. For the same molecule, the IC50 [4] was greater than 1000 nM, the IC50 [5] was greater than 1000 nM and the “MTAP intact/deleted ratio” value [5] was “B (an IC50 ratio greater than or equal to 3 fold but lower than 10 fold)”. It also gave an IC50 [6, 7] greater than 10000 nM.
In the case of `Cc1cncc(NC(=O)C(=O)N2C[C@@H](C)CC[C@@H]2c2cccc(C)c2)c1` (single isomer, unassigned) [Compound 11], the IC50 (PRMT5 [1]) is reported as greater than 500 nM, the IC50 (PRMT5 [2]) is reported as greater than 500 nM and the IC50 (PRMT5 [3]) is reported as greater than 500 nM. The IC50 [4] was greater than 1000 nM, the IC50 [5] was greater than 1000 nM and the “MTAP intact/deleted ratio” value [5] was “C (an IC50 ratio of less than 3 fold)”. The IC50 [6, 7] was greater than 10000 nM.
Work on `Cc1ccc([C@@H]2CC[C@@H](C)CN2C(=O)C(=O)Nc2cncc(C)c2)cc1` (single isomer, unassigned) [Compound 16] yielded an IC50 (PRMT5 [1]) greater than 500 nM, an IC50 (PRMT5 [2]) greater than 500 nM and an IC50 (PRMT5 [3]) of 50 to 500 nM. The IC50 [4] was greater than 1000 nM, the IC50 [5] was greater than 1000 nM and the “MTAP intact/deleted ratio” value [5] was “B (an IC50 ratio greater than or equal to 3 fold but lower than 10 fold)”. For the same molecule, the IC50 [6, 7] was greater than 10000 nM.
`CC[C@@H]1CC[C@@H](c2ccccc2)N(C(=O)C(=O)Nc2cncc(C)c2)C1` (single isomer, unassigned) [Compound 17] was tested, and the IC50 (PRMT5 [1]) was greater than 500 nM, the IC50 (PRMT5 [2]) was greater than 500 nM and the IC50 (PRMT5 [3]) was 50 to 500 nM. The IC50 [4] was greater than 1000 nM, the IC50 [5] was greater than 1000 nM and the “MTAP intact/deleted ratio” value [5] was “B (an IC50 ratio greater than or equal to 3 fold but lower than 10 fold)”. It also gave an IC50 [6, 7] greater than 10000 nM.
`Cc1cncc(NC(=O)C(=O)N2C[C@H](C)CC[C@H]2c2ccc(C)c(C)c2)c1` (single isomer, unassigned) [Compound 21] was tested, and the IC50 (PRMT5 [1]) was 50 to 500 nM, the IC50 (PRMT5 [2]) was 50 to 500 nM and the IC50 (PRMT5 [3]) was 50 to 500 nM. For the same molecule, the IC50 [4] was greater than 1000 nM, the IC50 [5] was greater than 1000 nM and the “MTAP intact/deleted ratio” value [5] was “B (an IC50 ratio greater than or equal to 3 fold but lower than 10 fold)”. The IC50 [6, 7] was greater than 10000 nM.
Work on `Cc1cc(NC(=O)C(=O)N2CCCC[C@H]2c2cccs2)cnc1N` (single isomer, unassigned) [Compound 22] yielded an IC50 (PRMT5 [1]) greater than 500 nM, an IC50 (PRMT5 [2]) greater than 500 nM and an IC50 (PRMT5 [3]) of 50 to 500 nM. The IC50 [4] was greater than 1000 nM, the IC50 [5] was greater than 1000 nM and the “MTAP intact/deleted ratio” value [5] was “B (an IC50 ratio greater than or equal to 3 fold but lower than 10 fold)”. The IC50 [6, 7] was greater than 10000 nM.
In the case of `Cc1cc(NC(=O)C(=O)N2CCCC[C@@H]2c2cccs2)cnc1N` (single isomer, unassigned) [Compound 24], the IC50 (PRMT5 [1]) is reported as 50 to 500 nM, the IC50 (PRMT5 [2]) is reported as 50 to 500 nM and the IC50 (PRMT5 [3]) is reported as less than 50 nM. The IC50 [4] was greater than 1000 nM, the IC50 [5] was less than 100 nM and the “MTAP intact/deleted ratio” value [5] was “A (an IC50 ratio greater than or equal to 10 fold)”. It also gave an IC50 [6, 7] greater than 10000 nM.
Molecule `Cc1cc(NC(=O)C(=O)N2CCCC[C@H]2C2CCCCC2)cnc1N` (single isomer, unassigned) [Compound 34] has an IC50 (PRMT5 [1]) greater than 500 nM, an IC50 (PRMT5 [2]) greater than 500 nM and an IC50 (PRMT5 [3]) greater than 500 nM. For the same molecule, the IC50 [4] was greater than 1000 nM, the IC50 [5] was greater than 1000 nM and the “MTAP intact/deleted ratio” value [5] was “C (an IC50 ratio of less than 3 fold)”. It also gave an IC50 [6, 7] greater than 10000 nM.
Molecule `Cc1cc(NC(=O)C(=O)N2CCCC[C@@H]2C2CCCCC2)cnc1N` (single isomer, unassigned) [Compound 42] has an IC50 (PRMT5 [1]) of 50 to 500 nM, an IC50 (PRMT5 [2]) of 50 to 500 nM and an IC50 (PRMT5 [3]) of less than 50 nM. The IC50 [4] was greater than 1000 nM, the IC50 [5] was less than 100 nM and the “MTAP intact/deleted ratio” value [5] was “A (an IC50 ratio greater than or equal to 10 fold)”. It also gave an IC50 [6, 7] of 1000 to 10000 nM.
`Cn1nccc1C1CCCCN1C(=O)C(=O)Nc1cncc(C(N)=O)c1` (single isomer, unassigned) [Compound 46] showed an IC50 (PRMT5 [1]) of 50 to 500 nM, an IC50 (PRMT5 [2]) of 50 to 500 nM and an IC50 (PRMT5 [3]) of less than 50 nM. For the same molecule, the IC50 [4] was greater than 1000 nM, the IC50 [5] was 100 to 1000 nM and the “MTAP intact/deleted ratio” value [5] was “A (an IC50 ratio greater than or equal to 10 fold)”. The IC50 ([6]; viability assay) was greater than 10000 nM.
With `Cc1cc(NC(=O)C(=O)N2CCCC[C@H]2c2ccncc2)cnc1N` (single isomer, unassigned) [Compound 47] the IC50 (PRMT5 [1]) was greater than 500 nM, the IC50 (PRMT5 [2]) was greater than 500 nM and the IC50 (PRMT5 [3]) was greater than 500 nM. The IC50 [4] was greater than 1000 nM, the IC50 [5] was greater than 1000 nM and the “MTAP intact/deleted ratio” value [5] was “C (an IC50 ratio of less than 3 fold)”. It also gave an IC50 [6, 7] greater than 10000 nM.
